Experimental data taken from US10980777B2, “Indole derivatives as histone demethylase inhibitors” (Istituto Europeo di Oncologia S.r.l., priority 2017, dated 2021).
Counter-ions that a name gives are not always drawn. Like-named read-outs stand apart in the source and are kept apart here.

How the values were obtained:
[1] = target: T1, human recombinant KDM1A/CoREST protein (Homo sapiens, UniProt O60341); test: Assay of enzyme inhibition of KDM1A (LSD1), TR-FRET; assay type: biochemical
T1 construct: made in house; host or cells: E. coli
Description: 2.1 Assay of Enzyme Inhibition of KDM1A (LSD1)
The KDM1A inhibiting activity was determined using a TR-FRET assay (time resolved fluorescence resonance energy transfer, Lance® Ultra Demethylase technology (Perkin Elmer, Waltham, Mass., USA)), which comprises a Europium chelate donor dye (TRF0404, Perkin Elmer, Waltham, Mass., USA) together with ULight™ (TR0102, Perkin Elmer, Waltham, Mass., USA), a small molecular weight acceptor dye with a red-shifted fluorescent emission, and a biotinylated 21 amino acids histone H3-derived monomethylated peptide (H3K4me) [Lys(Me1)4]-Histone H3 (1-21)-GGK(biotin), (64355, Anaspec, Fremont, Calif., USA) as substrate. The intensity of the light emission is proportional to the level of biotinylated reaction product. The complex of human recombinant KDM1A/CoREST protein was produced in E. coli as separate proteins and co-purified as previously described.(Forneris, F. et al. Trends Biochem, Sci, 2008, 33, 181-189) (Forneris, F. et al. J. Biol. Chem. 2007, 282, 20070-20074).
Demethylase Assay conditions: 0.25 nM KDM1A/CoREST protein and compound in 100% DMSO were added in a final volume of 48 μL assay buffer (Tris HCl 50 mM pH 8.8, NaCl 50 mM, DTT 1 mM, Tween-20 0.01% (by volume)) to each well of a 96 well half area flat bottom white plate (3693 Costar, Sigma-Aldrich, St. Louis, M, USA).
Demethylase reaction was started by the addition of 50 nM histone H3K4 monomethylated. After 20 min at RT, 300 μM tranylcypromine (P8511-1G, Sigma-Aldrich, St. Louis, Mo. 63103) was added to stop the reaction.
Detection step conditions: 10 μL of the assay mixture was transferred from the original plate into a 384 well white plate (6007290 OptiPlate™, Perkin Elmer, Waltham, Mass., USA) and 10 μL of the detection Mix containing 2 nM Eu-antibody and 10 nM U-Light-Streptavidin in 1× Lance Detection Buffer (TRF0404, TR0102, CR97100, Perkin Elmer, Waltham, Mass., USA). The resulting mixture was incubated in the dark for 1 h at RT. Then, TR-FRET signal was read by a fluorimeter (Infinite® F200, Tecan, Männedorf, Switzerland) (Excitation 320 nm, Emission 665 nm and 620 nm, delay time 50 μs, window time 100 μs).
IC50 determination: The inhibitor concentrations ranged from 0.025 to 500 μM (serial 1:3 dilutions). The IC50 was calculated using GraphPad Software.

[2] = test system: Human leukemia MV4-11 cells; test: Cell growth, CellTiter-Fluor cell viability assay, MV4-11; assay type: cell-based; conditions: 48 h incubation, read-out: IC50 against human leukemia MV4-11 cells
Excerpt: (§1) CellTiter-Flor® (Promega) is as a nonlytic, single-reagent-addition fluorescence assay that measures the relative number of living cells in a culture population after experimental manipulation. The CellTiter-Fluor™ Cell Viability Assay measures the conserved and constitutive protease activity within live cells and therefore acts as a marker for cell viability.
(§2) Human leukemia MV4-11 cells, (obtained from the Deutsche Sammlung von Mikroorganismen und Zellkulturen, ACC 102) or NB4 cells, (obtained from the Deutsche Sammlung von Mikroorganismen und Zellkulturen) in exponential growth, were incubated for 48 h with different concentrations of the inhibitors. After 48 h a volume of CellTiter-Fluor® Reagent equal to one fifth of volume of cell culture medium was added. The content was mixed and incubates for at least 90 min at 37° C. degree to obtain a stable signal. The fluorescence was recorded using an excitation wavelength of 360 nm and an emission at 535 nm. The IC50 was calculated using GraphPad Software.

human leukemia NB4 cells = test: Cell growth, CellTiter-Fluor cell viability assay, NB4; assay type: cell-based; conditions: NB-4, 48 h incubation, read-out: IC50 against human leukemia NB4 cells
Excerpt: as §1, §2

[3] = 0.25 nM KDM1A/CoREST, 50 nM H3K4 monomethylated peptide, 20 min at RT, read-out: IC50, KDM1A (LSD1) enzyme inhibition

SMILES | IC50 [1, 3] [µM] | IC50 [2] [µM] | IC50 (human leukemia NB4 cells) [µM] | IC50 [1] [µM]
Cn1c(C(=O)c2cn(CCOc3ccc(OC[C@@H]4CCNC4)cc3)c3ccccc23)cc2sccc21 (stereo in doubt) [Compound 15, (4-methylthieno[3,2-b]pyrrol-5-yl)-[1-[2-[4-(pyrrolidin-3-ylmethoxy)phenoxy]ethyl]indol-3-yl]methanone hydrochloride] | < 0.5 | < 10 | < 10 | 
Cn1c(C(=O)c2cn(CCOc3cccc(O[C@@H]4CCCNCC4)c3)c3ccccc23)cc2sccc21 (stereo in doubt) [Compound 20, [1-[2-[3-(azepan-4-yloxy)phenoxy]ethyl]indol-3-yl]-(4-methylthieno[3,2-b]pyrrol-5-yl)methanone hydrochloride] | < 0.5 |  | < 10 | 
Cn1c(C(=O)c2cn(CCOc3ccc(O[C@H]4CCCNCC4)cc3)c3ccccc23)cc2sccc21 (stereo in doubt) [Compound 21, [1-[2-[4-(azepan-4-yloxy)phenoxy]ethyl]indol-3-yl]-(4-methylthieno[3,2-b]pyrrol-5-yl)methanone hydrochloride] | < 0.5 |  | < 10 | 
Cn1c(C(=O)c2cn(CCCc3ccc(OC[C@@H]4CCNC4)cc3)c3ccccc23)cc2sccc21 (stereo in doubt) [Compound 22, (4-methylthieno[3,2-b]pyrrol-5-yl)-[1-[3-[4-(pyrrolidin-3-ylmethoxy)phenyl]propyl]indol-3-yl]methanone hydrochloride] | < 0.5 |  | < 10 | 
Cn1c(C(=O)c2cn(CCCc3ccc(O[C@H]4CCCNCC4)cc3)c3ccccc23)cc2sccc21 (stereo in doubt) [Compound 25, [1-[3-[4-(azepan-4-yloxy)phenyl]propyl]indol-3-yl]-(4-methylthieno[3,2-b]pyrrol-5-yl)methanone hydrochloride] | < 0.5 |  |  | 
CCn1c(C(=O)c2cn(CCCc3ccc(OC[C@@H]4CCNC4)cc3)c3ccccc23)cc2sccc21 (stereo in doubt) [Compound 28, (4-ethylthieno[3,2-b]pyrrol-5-yl)-[1-[3-[4-(pyrrolidin-3-ylmethoxy)phenyl]propyl]indol-3-yl]methanone hydrochloride] | < 0.5 |  |  | 
Cn1c(C(=O)c2cn(CCCc3ccc(OC[C@@H]4CCNC4)cc3)c3ccccc23)cc2ccsc21 (stereo in doubt) [Compound 29, (6-methylthieno[2,3-b]pyrrol-5-yl)-[1-[3-[4-(pyrrolidin-3-ylmethoxy)phenyl]propyl]indol-3-yl]methanone] | < 0.5 |  |  | 
Cn1c(C(=O)c2c[nH]c3ccccc23)cc2sccc21 [Compound 1, 1H-indol-3-yl-(4-methylthieno[3,2-b]pyrrol-5-yl)methanone] | < 50 |  |  | 
Cc1ccc2[nH]cc(C(=O)c3cc4sccc4n3C)c2c1 [Compound 2, (5-methyl-1H-indol-3-yl)-(4-methylthieno[3,2-b]pyrrol-5-yl)methanone] | < 50 |  |  | 
CCn1c(C(=O)c2c[nH]c3ccccc23)cc2sccc21 [Compound 5, (4-ethylthieno[3,2-b]pyrrol-5-yl)-(1H-indol-3-yl)methanone] | < 50 |  |  | 
Cn1c(C(=O)c2c[nH]c3ccccc23)cc2ccsc21 [Compound 6, 1H-indol-3-yl-(6-methylthieno[2,3-b]pyrrol-5-yl)methanone] | < 50 |  |  | 
COCCn1cc(C(=O)c2cc3sccc3n2C)c2ccccc21 [Compound 8, [1-(2-Methoxyethyl)indol-3-yl]-(4-methylthieno[3,2-b]pyrrol-5-yl)methanone] |  |  |  | < 50
Cn1c(C(=O)c2cn(CCOc3ccccc3OCC3CCNC3)c3ccccc23)cc2sccc21 (stereo not shown) [Compound 11, (4-Methylthieno[3,2-b]pyrrol-5-yl)-[1-[2-[2-(pyrrolidin-3-ylmethoxy)phenoxy]ethyl]indol-3-yl]methanone hydrochloride] | < 5 | < 10 | < 10 | 
Cn1c(C(=O)c2cn(CCOc3cccc(OCC4CCNC4)c3)c3ccccc23)cc2sccc21 (stereo not shown) [Compound 12, (4-methylthieno[3,2-b]pyrrol-5-yl)-[1-[2-[3-(pyrrolidin-3-ylmethoxy)phenoxy]ethyl]indol-3-yl]methanone] | < 0.5 |  |  | 
Cn1c(C(=O)c2cn(CCOc3cccc(OC[C@H]4CCNC4)c3)c3ccccc23)cc2sccc21 [Compound 13, (4-methylthieno[3,2-b]pyrrol-5-yl)-[1-[2-[3-[[(3S)-pyrrolidin-3-yl]methoxy]phenoxy]ethyl]indol-3-yl]methanone hydrochloride] | < 0.5 | < 10 | < 10 | 
Cn1c(C(=O)c2cn(CCOc3cccc(OC[C@@H]4CCNC4)c3)c3ccccc23)cc2sccc21 [Compound 14, (4-methylthieno[3,2-b]pyrrol-5-yl)-[1-[2-[3-[[(3R)-pyrrolidin-3-yl]methoxy]phenoxy]ethyl]indol-3-yl]methanone hydrochloride] | < 0.5 | < 10 | < 10 | 
Cn1c(C(=O)c2cn(CCOc3cccc(OC4CCNCC4)c3)c3ccccc23)cc2sccc21 [Compound 16, (4-methylthieno[3,2-b]pyrrol-5-yl)-[1-[2-[3-(4-piperidyloxy)phenoxy]ethyl]indol-3-yl]methanone hydrochloride] | < 0.5 | < 10 | < 10 | 
Cn1c(C(=O)c2cn(CCOc3ccc(OC4CCNCC4)cc3)c3ccccc23)cc2sccc21 [Compound 17, (4-methylthieno[3,2-b]pyrrol-5-yl)-[1-[2-[4-(4-piperidyloxy)phenoxy]ethyl]indol-3-yl]methanone hydrochloride] | < 0.5 | < 10 | < 10 | 
Cn1c(C(=O)c2cn(CCOc3cccc(OCC4CCNCC4)c3)c3ccccc23)cc2sccc21 [Compound 18, (4-methylthieno[3,2-b]pyrrol-5-yl)-[1-[2-[3-(4-piperidylmethoxy)phenoxy]ethyl]indol-3-yl]methanone hydrochloride] | < 0.5 | < 10 | < 10 | 
Cn1c(C(=O)c2cn(CCCc3ccc(OCC4CCNCC4)cc3)c3ccccc23)cc2sccc21 [Compound 23, (4-methylthieno[3,2-b]pyrrol-5-yl)-[1-[3-[4-(4-piperidylmethoxy)phenyl]propyl]indol-3-yl]methanone hydrochloride] | < 0.5 |  | < 10 | 
Cn1c(C(=O)c2cn(CCCc3ccc(OC4CCNCC4)cc3)c3ccccc23)cc2sccc21 [Compound 24, (4-methylthieno[3,2-b]pyrrol-5-yl)-[1-[3-[4-(4-piperidyloxy)phenyl]propyl]indol-3-yl]methanone hydrochloride] | < 0.5 |  | < 10 | 
Cn1c(C(=O)c2cn(CCCc3ccc(OCC4CCNCC4)c(OCC4CCNCC4)c3)c3ccccc23)cc2sccc21 [Compound 26, [1-[3-[3,4-bis(4-piperidylmethoxy)phenyl]propyl]indol-3-yl]-(4-methylthieno[3,2-b]pyrrol-5-yl)methanone] | < 0.5 |  |  | 
CCn1c(C(=O)c2cn(CCCc3ccc(OC4CCNCC4)cc3)c3ccccc23)cc2sccc21 [Compound 27, (4-ethylthieno[3,2-b]pyrrol-5-yl)-[1-[3-[4-(4-piperidyloxy)phenyl]propyl]indol-3-yl]methanone hydrochloride] | < 0.5 |  |  | 
Cn1c(C(=O)c2cn(CCCc3ccc(OC4CCNCC4)cc3)c3ccccc23)cc2ccsc21 [Compound 30, (6-methylthieno[2,3-b]pyrrol-5-yl)-[1-[3-[4-(4-piperidyloxy)phenyl]propyl]indol-3-yl]methanone] | < 0.5 |  |  | 
